The values below come from patent US12653914B2, “Compounds for fast and efficient click release” (priority 2019, dated 2026).

Like-named read-outs stand apart in the source and are kept apart here. Where a SMILES comes first, the peptide text is derived from it. [ ]: non-standard residue; d: D form. The star is where a group is joined. Dolaproine = CO[C@@H]([C@@H]1CCCN1)[C@@H](C)C(=O)O; X1 = COC(=O)[C@]1(O)CC/C=C/[C@H](OC(=O)*)CC1; Dil = CC[C@H](C)[C@H](NC)[C@@H](CC(=O)O)OC; X2 = C[C@@H](N*)[C@@H](O)c1ccccc1; NMeV = CN[C@H](C(=O)O)C(C)C

Data set [1] is described as follows: Second order rate constants, TCO with tetrazine activators, stopped-flow spectrophotometry in PBS. The settings on record: PBS at 37° C., 25 μM tetrazine, 50 μM TCO. As for the experimental part:
Second order rate constants for the reaction of tetrazines activators with 1.13 and 1.71 were determined using a SX20 stopped-flow spectrophotometer from Applied Photophysics. Measurements were performed at 37° C. with 25 μM tetrazine and 50 μM TCO in PBS, in triplicates, monitored at 535 nm. Data was analyzed using GraphPad Prism. Second order rate constants were determined from nonlinear fitting of the absorbance vs. time curves to the second order rate equation. […] Importantly, 2.17 and 2.18 are very reactive, but afford low release yields with TCO triggers that are not part of this invention (i.e. 1.71) [Versteegen et al., Angew. Chem. Int. Ed. 2013, 52, 14112-14116].

Data set [2] is classed as in vitro ADME. The settings on record: human, 200 μM. As for the experimental part: (§1) 1.13 was incubated at 37° C. in PBS and human plasma at a concentration of 200 μM. The concentration after 12, 24 and 48 h was determined (n=3) by titration with activator 2.9 and simultaneous absorbance measurements.
A short description of data set [3]: Trigger stability in vitro in PBS. The settings on record: 37° C., 200 μM, after 48 h, n=3. In kind it is physicochemical. As for the experimental part:
as §1

Data set [4] relates to HT-1080 cells (human fibrosarcoma). Nature of the data set: Cell viability, MTT assay. In kind it is cell-based. The settings on record: then 94 h, n=3. As for the experimental part: HT-1080 cells (human fibrosarcoma) were added with serial dilutions of the TCO-MMAE prodrug 1.16 (100 μM-0.32 nM) in growth medium and 10 μL of a stock solution of activator 2.18 (50 μM in PBS) in a 96-well plate (n=3). After a 2 h incubation at 37° C., the medium was refreshed and the cells were incubated for 94 more hours.

Consider `COC(=O)[C@]1(O)CC/C=C/[C@H](OC(=O)NCCOCCOCCOCCO)CC1` [Compound 1.13, Methyl(1S,4E,6R)-1-hydroxy-6-{[(2-{2-[2-(2-hydroxyethoxy)ethoxy]ethoxy}ethyl)carbamoyl]oxy}cyclooct-4-ene-1-carboxylate], for which the k2 in data set [1] (activator 2.12) is 260 ± 40 M⁻¹ s⁻¹; in data set [1] (activator 2.17), 8700 ± 1200 M⁻¹ s⁻¹; in data set [1] (activator 2.18), 10400 ± 1100 M⁻¹ s⁻¹; in data set [1] (activator 2.9), 70 ± 10 M⁻¹ s⁻¹. For the same molecule, the “residual intact TCO” value in data set [2] (24 h) is reported as 98±7%; in data set [2] (48 h) it was 76±9%. The “intact TCO” value in data set [3] was 101±5%.

Take `CC[C@H](C)[C@@H]([C@@H](CC(=O)N1CCC[C@H]1[C@H](OC)[C@@H](C)C(=O)N[C@H](C)[C@@H](O)c1ccccc1)OC)N(C)C(=O)[C@@H](NC(=O)[C@H](C(C)C)N(C)C(=O)O[C@H]1/C=C/CC[C@@](O)(C(=O)OC)CC1)C(C)C` [Compound 1.16, TCO-MMAE] (X1-[NMeV]V[Dil][Dolaproine]-X2): the IC50 in data set [4] (HT-1080, 1.16 alone (no activator), 2 h incubation) is 1300 nM; in data set [4] (HT-1080, in the presence of activator 2.18, 2 h incubation), 0.3 nM.
